# Laboratory results: patent publication US9315475B2 (MERCK SHARP & DOHME CORP., priority 2011, dated 2016)
# Test system: HIV-1 (H9IIIB strain)
# Experiment: Antiviral acute infection assay in cell culture (Spread)
# Type: cell-based
# Details: HIV-1 H9IIIB infection of MT-4 human T-lymphoid cells in 10% FBS; mean of at least two independent experiments
# Description: Antiviral Assays in Cell Culture (“Spread”)
# Acute Infection Assay (“Spread”) data were generated using HIV-1 (H9IIIB strain) infection of MT-4 human T-lymphoid cells in 10% FBS, and according to the methods disclosed by J. P. Vacca et al, “L-735,524: An orally bioavailable human immunodeficiency virus type 1 protease inhibitor,” Proc. Natl. Acad. Sci. USA, Vol. 91, pp. 4096-4100 (April 1994).
row,EC50,Structure (SMILES)
1,380 nM,"O=C(C[C@@H](c1ccc(F)cc1)c1ccc(OC(F)(F)F)cc1)Nc1cccc(F)c1CC[C@@H]1CN[C@H](COC(=O)NCC(F)(F)F)CO1 [Example 159, [(3S,6R)-6-{2-[2-fluoro-6-({(3R)-3-(4-fluorophenyl)-3-[4-(trifluoro-methoxy)phenyl]propanoyl}amino)phenyl]ethyl}morpholin-3-yl] methyl (2,2,2-trifluoroethyl)carbamate]"

# Same assay, conditions: Human immunodeficiency virus 1, T-lymphoid, HIV-1 H9IIIB infection of MT-4 human T-lymphoid cells in 10% FBS; mean of at least two independent experiments
row,EC50,Structure (SMILES)
1,450 nM,"N[C@H](C(=O)Nc1cccc(F)c1CC[C@@H]1CN[C@H](CNC(=O)OCC(F)(F)F)CO1)C(c1ccc(F)cc1)c1ccc(F)cc1 [Example 88, 4-fluoro-β-(4-fluorophenyl)-N-(3-fluoro-2-{2-[(2R,5R)-5-({[(2,2,2-trifluoro-ethoxy)carbonyl]amino}methyl)morpholin-2-yl]ethyl}phenyl)-L-phenylalaninamide]"
2,30 nM,"N#Cc1ccc([C@@H](CC(=O)Nc2cncc(F)c2CC[C@@H]2CN[C@H](COC(=O)NCC(F)(F)F)CO2)c2ccc(F)c(F)c2)cc1 [Example 115, {(3S,6R)-6-[2-(3-{[(3R)-3-(4-Cyanophenyl)-3-(3,4-difluorophenyl)propanoyl]amino}-5-fluoropyridin-4-yl)ethyl]morpholin-3-yl}methyl (2,2,2-trifluoroethyl)carbamate]"
3,23 nM,"O=C(C[C@@H](c1ccc(F)cc1)c1ccc(C(F)(F)F)nc1)Nc1cncc(F)c1CC[C@@H]1CN[C@H](COC(=O)NCC(F)(F)F)CO1 [Example 133, [(3S,6R)-6-{2-[3-Fluoro-5-({(3S)-3-(4-fluorophenyl)-3-[6-(trifluoromethyl)pyridin-3-yl]propanoyl}amino)pyridin-4-yl]ethyl}morpholin-3-yl]methyl (2,2,2-trifluoroethyl)carbamate]"
4,200 nM,"COC(=O)N[C@H](C(=O)Nc1cccc(F)c1CC[C@@H]1CN[C@H](COC(=O)NCC(F)(F)F)CO1)[C@@H](c1ccncc1)c1ccc(F)cc1 [Example 112, (βR)-4-Fluoro-N-(3-fluoro-2-{2-[(2R,5S)-5-({[(2,2,2-trifluoroethyl)carbamoyl]oxy}methyl)morpholin-2-yl]ethyl}phenyl)-Nα-(methoxycarbonyl)-β-pyridin-4-yl-L-phenylalaninamide]"
5,860 nM,"COC(=O)N[C@H](C(=O)Nc1cccc(F)c1CC[C@@H]1CN[C@H](COC(=O)NCC(F)(F)F)CO1)C(c1ccc(Cl)cc1)c1ccc(Cl)cc1 [Example 108, 4-Chloro-β-(4-chlorophenyl)-N-(3-fluoro-2-{2-[(2R,5S)-5-({[(2,2,2-trifluoroethyl)carbamoyl]oxy}methyl)morpholin-2-yl]ethyl}phenyl)-Nα-(methoxycarbonyl)-L-phenylalaninamide]"
6,61 nM,"O=C(CC(c1ccc(F)cc1)c1ccc(F)cc1)Nc1cncc(F)c1CC[C@@H]1CN[C@H](COC(=O)NCCOc2ccccc2)CO1 [Example 170, {(3S,6R)-6-[2-(3-{[3,3-bis(4-fluoro-phenyl)propanoyl]amino}-5-fluoropyridin-4-yl)ethyl]morpholin-3-yl}methyl (2-phenoxyethyl)carbamate]"

# Target: T1, wildtype HIV-1 protease (Human immunodeficiency virus type 1 group M subtype B, UniProt P04585)
# T1 construct: the wildtype HIV-1 protease (which was expressed in Escherichia coli); made in house; host or cells: Escherichia coli
# Experiment: Assay for inhibition of microbial expressed HIV protease (Pepcleav)
# Type: biochemical
# Details: Pepcleav (nM), wild type HIV-1 protease expressed in E. coli, peptide substrate, pH 5.5; mean of at least two independent experiments
# Summary of the method: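 E. coli-expressed wild-type HIV-1 protease (20 pM) preincubated 30 min at room temperature with inhibitor in pH 5.5 sodium acetate/NaCl/BSA buffer, then 400 μM Val-Ser-Gln-Asn-(βnaphthyl)Ala-Pro-Ile-Val added for 1 h at 30 °C. Quenched with formic acid; product quantified by LC-MS/MS peak area, indinavir internal standard.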
row,Structure (SMILES),IC50
1,"COC(=O)N[C@H](C(=O)Nc1ccccc1CC[C@@H]1CN[C@H](CNC(=O)Oc2ccccc2)CO1)C(c1ccccc1)c1ccccc1 [Example 51, Nα-(methoxycarbonyl)-N-(2-{2-[(2R,5R)-5-{[(phenoxycarbonyl)amino]methyl}morpholin-2-yl]ethyl}phenyl)-β-phenyl-L-phenylalaninamide]",38 nM

# Same assay, conditions: wild type HIV-1 protease expressed in E. coli, peptide substrate, pH 5.5; mean of at least two independent experiments; read-out: Pepcleav
row,Structure (SMILES),IC50
1,"COC(=O)N[C@H](C(=O)Nc1ccccc1CC[C@@H]1CN[C@H](C(=O)NCCc2ccccc2)CO1)C(c1ccccc1)c1ccccc1 [Example 6, Nα-(methoxycarbonyl)-β-phenyl-N-[2-(2-{(2R,5S)-5-[(2-phenylethyl)carbamoyl]morpholin-2-yl}ethyl)phenyl]-L-phenylalaninamide]",9.9 nM
2,"N[C@H](C(=O)Nc1ccc(F)cc1CC[C@@H]1CN[C@H](COC(=O)NCC(F)F)CO1)C(c1ccccc1)c1ccccc1 [Example 192, N-(2-{2-[(2R,5S)-5-({[(2,2-difluoroethyl)carbamoyl]oxy}methyl)morpholin-2-yl]ethyl}-4-fluorophenyl)-β-phenyl-L-phenylalaninamide]",130 nM
3,"COC(=O)N[C@H](C(=O)Nc1ccccc1CC[C@@H]1CN[C@H](CCCc2ccccc2)CO1)C(c1ccccc1)c1ccccc1 [Example 67, methyl{(1S)-1-(diphenylmethyl)-2-oxo-2-[(2-{2-[(2R,5R)-5-(3-phenylpropyl)morpholin-2-yl]ethyl}phenyl)amino]ethyl}carbamate]",26 nM
4,"COC(=O)N[C@H](C(=O)Nc1ccccc1CC[C@@H]1CN[C@H](CNS(=O)(=O)c2ccccn2)CO1)C(c1ccccc1)c1ccccc1 [Example 48, methyl N-[(1S)-1-benzhydryl-2-oxo-2-[[2-[2-[(2R,5R)-5-[(2-pyridylsulfonylamino)methyl]morpholin-2-yl]ethyl]phenyl]amino]ethyl]carbamate]",91 nM
5,"COC(=O)N[C@H](C(=O)Nc1ccccc1CC[C@@H]1CN[C@H](C(=O)NC2CCOC2)CO1)C(c1ccccc1)c1ccccc1 (stereo partly drawn) [Example 4, Nα-(methoxycarbonyl)-β-phenyl-N-(2-{2-[(2R,5S)-5-(tetrahydrofuran-3-ylcarbamoyl)morpholin-2-yl]ethyl}phenyl)-L-phenylalaninamide]",25 nM
6,"COC(=O)N[C@H](C(=O)Nc1ccccc1CC[C@@H]1CN[C@H](C(=O)NCc2ccccc2)CO1)C(c1ccccc1)c1ccccc1 [Example 2, N-(2-{2-[(2R,5S)-5-(benzylcarbamoyl)morpholin-2-yl]ethyl}phenyl)-Nα-(methoxycarbonyl)-β-phenyl-L-phenylalaninamide]",1.4 nM
7,"COC(=O)N[C@H](C(=O)Nc1ccccc1CC[C@@H]1CN[C@H](COC(=O)N[C@H]2c3ccccc3C[C@H]2O)CO1)C(c1ccccc1)c1ccccc1 [Example 14, N-[2-(2-{(2R,5S)-5-[({[(1S,2R)-2-hydroxy-2,3-dihydro-1H-inden-1-yl]carbamoyl}oxy)methyl]morpholin-2-yl}ethyl)phenyl]-Nα-(methoxycarbonyl)-β-phenyl-L-phenylalaninamide]",17 nM
8,"N[C@@H](C(=O)Nc1cncc(F)c1CC[C@@H]1CN[C@H](CO)CO1)[C@@H](c1ccccc1)c1ccnc2ccccc12 [Example 225, (βS)-N-(5-fluoro-4-{2-[(2R,5R)-5-(hydroxymethyl)morpholin-2-yl]ethyl}pyridin-3-yl)-β-quinolin-4-yl-D-phenylalaninamide]",2700 nM
9,"COC(=O)N[C@H](C(=O)Nc1ccccc1CC[C@@H]1CN[C@H](CNC(=O)c2cc3ccccc3[nH]2)CO1)C(c1ccccc1)c1ccccc1 [Example 56, methyl N-[(1S)-1-benzhydryl-2-[[2-[2-[(2R,5R)-5-[(1H-indole-2-carbonylamino)methyl]morpholin-2-yl]ethyl]phenyl]amino]-2-oxo-ethyl]carbamate]",34 nM
10,"COC(=O)N[C@H](C(=O)Nc1ccccc1CC[C@@H]1CN[C@H](CNS(=O)(=O)c2ccc(N)cc2)CO1)C(c1ccccc1)c1ccccc1 [Example 49, N-(2-{2-[(2R,5R)-5-({[(4-aminophenyl)sulfonyl]amino}methyl)morpholin-2-yl]ethyl}phenyl)-Nα-(methoxy-carbonyl)-β-phenyl-L-phenylalaninamide]",94 nM
11,"COC(=O)N[C@H](C(=O)Nc1ccccc1CC[C@@H]1CN[C@H](CNC(=O)c2cccnn2)CO1)C(c1ccccc1)c1ccccc1 [Example 54, methyl N-[(1S)-1-benzhydryl-2-oxo-2-[[2-[2-[(2R,5R)-5-[(pyridazine-3-carbonyl-amino)methyl]morpholin-2-yl]ethyl]phenyl]amino]ethyl] carbamate]",26 nM
12,"N[C@H](C(=O)Nc1cncc(F)c1CC[C@@H]1CN[C@H](COC(=O)NC2(c3ccncc3)CCC2)CO1)C(c1ccc(F)cc1)c1ccc(F)cc1 [Example 194, 4-fluoro-β-(4-fluorophenyl)-N-(5-fluoro-4-{2-[(2R,5S)-5-({[(1-pyridin-4-ylcyclobutyl)carbamoyl]oxy}methyl)morpholin-2-yl]ethyl}pyridin-3-yl)-L-phenylalaninamide]",100 nM
13,"N[C@H](C(=O)Nc1cccc(C(F)(F)F)c1CC[C@@H]1CN[C@H](COC(=O)NCC(F)(F)F)CO1)C(c1ccccc1)c1ccccc1 [Example 234, β-phenyl-N-[2-{2-[(2R,5S)-5-({[(2,2,2-trifluoroethyl)carbamoyl]oxy}methyl)morpholin-2-yl]ethyl}-3-(trifluoromethyl)phenyl]-L-phenylalaninamide]",110 nM
14,"COC(=O)N[C@H](C(=O)Nc1ccccc1CC[C@@H]1CN[C@H](CNS(=O)(=O)c2cccc(C(F)(F)F)n2)CO1)C(c1ccccc1)c1ccccc1 [Example 46, methyl N-[(1S)-1-benzhydryl-2-oxo-2-[[2-[2-[(2R,5R)-5-[[[6-(trifluoromethyl)-2-pyridyl]sulfonylamino]methyl]morpholin-2-yl]ethyl]phenyl]amino]ethyl]carbamate]",50 nM
15,"COC(=O)N[C@H](C(=O)Nc1ccccc1CC[C@@H]1CN[C@H](COC(=O)N2CCCC2)CO1)C(c1ccccc1)c1ccccc1 [Example 27, [(3S,6R)-6-[2-[2-[[(2S)-2-(methoxycarbonylamino)-3,3-diphenyl-propanoyl]amino]phenyl]ethyl]morpholin-3-yl]methyl pyrrolidine-1-carboxylate]",180 nM
